From patent US20240325397A1, “USE OF COMBINATION THERAPY FOR TREATING CANCER” (Recurium IP Holdings, LLC, priority 2021, published 2024)

Tests used:
[1] = test system: palbociclib-resistant breast cancer cells (CTG-1207); experiment: Palbociclib-resistant breast cancer PDX model (CTG-1207); format: in vivo, mice; settings: Compound (A) 80 mg/kg, palbociclib 50 mg/kg, alone or in combination; FIG. 10A
Method: The antitumor activity of Compound (A) in combination with palbociclib was further evaluated in a palbociclib-resistant breast cancer PDX model (CTG-1207). Mice were inoculated subcutaneously with palbociclib-resistant breast cancer cells in DMEM Matrigel mixture (1:1 ratio) without serum for tumor development. Once tumor size reached approximately 200 mm^3, mice were randomized into 4 groups (8 mice per group) and treated with vehicle control, 80 mg/kg Compound (A) alone, 50 mg/kg Palbociclib alone, or Compound (A) at 80 mg/kg in combination with 50 mg/kg palbociclib. Study endpoints included daily body weight, clinical observations, tumor volume.

[2] = test system: HCC1428 tumor cells; experiment: Activity in mice bearing human HCC1428 breast cancer xenograft tumors; format: in vivo
Method: The activity of Compound (A) as evaluated in mice bearing human HCC1428 breast cancer xenograft tumors. Each mouse was inoculated subcutaneously at the right flank with HCC1428 tumor cells (1×10^7) in 0.2 mL mixture of PBS and Matrigel (PBS: Matrigel=1:1) for tumor development, which has been subcutaneously implanted with 17beta-estradiol tablets (0.18 mg, 90-day release) two days before cell implantation. Treatments were started on day 21 after tumor inoculation when the average tumor size reached approximately 185 mm^3. The animals were assigned into two groups using an excel-based randomization software performing stratified randomization based upon their tumor volumes. Each group consisted of 10 tumor bearing mice. The vehicle control or Compound (A) at 80 mg/kg was administrated once daily to the mice by oral gavage for 28 days. In FIG. 5, the top line is vehicle, and the bottom line is Compound (A).

[3] = test system: HER2+ JIMT-1 breast cancer cell line; experiment: HER2+ JIMT-1 breast cancer xenograft, Study 1-Part 1; format: in vivo; settings: Compound (A) 60 mg/kg p.o. qd × 28, trastuzumab 10 mg/kg i.p. qw × 4
Method: The HER2+ JIMT-1 breast cancer cell line was used for tumor xenograft inoculations and subsequent treatment. […] Treatment was started when mean tumor size reached 204 mm^3. Mice were then randomized into 5 groups and treatments were administered to the tumor-bearing mice accordingly to the study design in Table 2.

[4] = test system: HER2+ JIMT-1 breast cancer cell line; experiment: HER2+ JIMT-1 breast cancer xenograft, Study 1-Part 2 (high initial tumor burden); format: in vivo, NOD/SCID mice; settings: Day 14 of second part; tumors approximately 1000 mm^3 at start; Compound (A) 60 mg/kg p.o. qd; trastuzumab 10 mg/kg i.p. qw; vs. vehicle
[5] = test system: MCF-7 tumor cells; experiment: Antitumor activity of Compound (A) as single agent in MCF-7 xenograft model; format: in vivo, mouse
Method: The antitumor activity of Compound (A) was assessed using the MCF-7 xenograft model. Each mouse was inoculated subcutaneously on the 2nd right mammary fat pad with 1.5×10^7 MCF-7 tumor cells in 200 μL DMEM Matrigel mixture (1:1 ratio) without serum for the tumor development. In addition, estradiol benzoate injection was delivered by s.c. (40 ug/20 uL, twice weekly). When mean tumor size reached 204 mm^3, animals were randomized into 2 groups (10 animals/group) and the treatments were initiated. Compound (A) or vehicle control was administered once daily by oral gavage and continued for 28-days. Study endpoints included daily body weight, clinical observations, tumor volume. […] In FIG. 3, the top line is vehicle, and the bottom line is Compound (A) (80 mg/kg qd×22 p.o).

[6] = test system: tamoxifen resistant ZR-75-1 tumor cells (ZR-75-1R); experiment: Single agent efficacy in ZR-75-1 tamoxifen resistant tumor model; format: in vivo, mouse; settings: post 28 days treatment; Tamoxifen 100 mg/kg 5 days per week for three weeks; Compound (A) 80 mg/kg orally daily for 28 days; FIG. 4
Method: Compound (A)'s efficacy as a single agent was evaluated in ZR-75-1 tamoxifen resistant tumor model. The tamoxifen resistant ZR-75-1 tumor cells (ZR-75-1R) were maintained in vitro as monolayer culture in RPMI1640 Medium supplemented with 10% fetal bovine serum and 10 μM tamoxifen at 37° C. in an atmosphere of 5% CO2 incubator. Each mouse was then inoculated subcutaneously on the right flank with 1×10^7 ZR-75-1R tumor cells in 100 μL RPMI-1640 Matrigel mixture (1:1 ratio) without serum for the tumor development. In addition, estradiol benzoate injection was delivered by s.c. (40 ug/20 uL, twice weekly). Mice were then randomized into 3 groups when mean tumor size reached 191 mm^3 and treatment was started. Tamoxifen was dosed at 100 mg/kg 5 days per week for three weeks, Compound (A) was orally dosed at 80 mg/kg daily for 28 days. Study endpoints included daily body weight, clinical observations, tumor volume. In FIG. 4, the top line is Tamoxifen (100 mg/kg), the middle line is vehicle, and the bottom line is Compound (A) (80 mg/kg). […] No other gross clinical abnormalities were observed during the treatment period and animal body loss was manageable by giving animals dosing holiday.

[7] = test system: MCF-7 cells; experiment: Compound (A) in combination with palbociclib at a lower dose in MCF-7 xenograft model; format: in vivo, mouse; settings: Compound (A) 60 mg/kg, palbociclib 25 mg/kg, alone or in combination; FIG. 7
Method: The antitumor activity of Compound (A) in combination with a CDK4/6 inhibitor, palbociclib at a lower dose was evaluated in the MCF-7 xenograft model. Each mouse was inoculated subcutaneously on the 2nd right mammary fat pad with 1.5×10^7 MCF-7 cells in 200 μL DMEM Matrigel mixture (1:1 ratio) without serum for the tumor development. In addition, estradiol benzoate injection was delivered by s.c. (40 ug/20 uL, twice weekly). The treatments were started when mean tumor size reached 203 mm^3. Mice were randomized into 4 groups (8 mice per group) and treated with vehicle control, 60 mg/kg Compound (A) alone, 25 mg/kg Palbociclib alone, Compound (A) at 60 mg/kg in combination with 25 mg/kg palbociclib. Study endpoints included daily body weight, clinical observations, tumor volume.

[8] = test system: MCF-7 tumor cells; experiment: Compound (A) in combination with palbociclib in MCF-7 xenograft model; format: in vivo, mouse; settings: 28 days; for tumor regression: Compound (A) 80/60 mg/kg, palbociclib 50 mg/kg, alone or in combination; for TGI: monotherapy: Compound (A) 80/60 mg/kg alone or palbociclib 50 mg/kg alone, FIG. 6
Method: The antitumor activity of Compound (A) in combination with a CDK4/6 inhibitor, palbociclib was evaluated in the MCF-7 xenograft model. Each mouse was inoculated subcutaneously on the right flank with the MCF-7 tumor cells (1.5×10^7) in 200 μL DMEM Matrigel mixture (1:1 ratio) without serum for the tumor development. In addition, estradiol benzoate injection was delivered by s.c. (40 ug/20 uL, twice weekly). When mean tumor size reached 202 mm^3, mice were randomized into 5 groups (10 animals/group) and treatment was started. Animals were dosed with vehicle, 80/60 mg/kg Compound (A) alone, 50 mg/kg palbociclib alone, 80 mg/kg Compound (A) in combination with 50 mg/kg Palbociclib by sequential dosing schedule (alternated per two weeks) or Compound (A) at 80/60 mg/kg in combination with palbociclib at 50 mg/kg. Treatment periods were 28 days. In FIG. 6, the top line (indicated with circles) is vehicle. […] Furthermore, Compound (A) in combination with palbociclib induced around 55% tumor regression.

[9] = Compound (A) 80 mg/kg once daily p.o. 28 days
[10] = Compound (A) 80 mg/kg once daily p.o.

| Structure (SMILES) | tumor growth / TGI (in words) [1] | tumor growth inhibition (TGI) ([2]; Compound (A) 80 mg/kg once daily by oral gavage for 28 days, FIG. 5) | body weight loss [2, 9] | clinical observations [2, 9] | tumor growth inhibition (TGI) on Day 29 compared to respective vehicle controls ([3]; combination vs. either vehicle control) | TGI (%) vs. Vehicle A ([3]; Day 29, Vehicle A p.o.) | TGI (%) on Day 14 [4] | inhibition of tumor growth ([5]; Compound (A) 80 mg/kg once daily by oral gavage, single agent, FIG. 3) | clinical observations [5, 10] | mean body weights [5, 10] | TGI (tumor growth inhibition) [6] | TGI [7] | tumor regression [8] | TGI [8] |
| --- | --- | --- | --- | --- | --- | --- | --- | --- | --- | --- | --- | --- | --- | --- |
| C=CCn1c(=O)c2cnc(Nc3ccc(N4CCN(C)CC4)cc3)nc2n1-c1ccc2c(n1)[C@@](O)(CC)CC2 [Compound (A)] | reduced tumor growth | 96.2% | no significant body weight loss | no adverse clinical observations | 68% | 67.7% | 68.2% | 132.6% | no adverse clinical observations | no significant impact on mean body weights | 69.9% | 48.6% | 32.7% | around 116% |
| CC/C(=C(\c1ccccc1)c1ccc(OCCN(C)C)cc1)c1ccccc1 [Tamoxifen, reference compound] |  |  |  |  |  |  |  |  |  |  | −47.9% |  |  |  |
| CC(=O)c1c(C)c2cnc(Nc3ccc(N4CCNCC4)cn3)nc2n(C2CCCC2)c1=O [palbociclib, reference compound] |  |  |  |  |  |  |  |  |  |  |  | 14.2% | 39.1% | ~119% |
